System: porcine trachea CFTR−/−
Assay: μOCT imaging of airway epithelial function in porcine trachea, CFTR-/- animals
Settings: sequential ivacaftor 10 μM, forskolin 100 nM, acetylcholine 100 μM in bath, 37° C. (FIG. 7G)
Excerpt: FIGS. 7A-7H show the effects of CFTR activators on airway epithelial function in intact porcine trachea by μOCT. FIGS. 7A-7B show representative μOCT images for a CFTR−/− (FIG. 7A) and CFTR+/+ (FIG. 7B) animal. FIGS. 7C-7F, respectively, show ASL depth (FIG. 7C), PCL depth (FIG. 7D), CBF (FIG. 7E) and MCT (FIG. 7F) measurements derived from μOCT images from CFTR−/− and CFTR+/+ animals. FIGS. 7G and 7H show the response of epithelial functional parameters, namely ASL depth and MCT in CFTR−/− (FIG. 7G) and CFTR+/+(FIG. 7H) animals in response to sequential pharmacologic intervention by ivacaftor (10 μM), forskolin (100 nM) and acetylcholine (100 μM).
To further investigate the role of CFTR activators in modulating airway epithelial cell function, CFTR activators were studied in combination with porcine trachea. In this example, porcine trachea from animals having a mutated CFTR (CFTR (−/−) and from animals having a WT-CFTR (CFTR+/+) were evaluated for ASL depth, PCL depth, CBF and MCT. The results are shown in FIGS. 7A-7H.
FIGS. 7G and 7H show the response of epithelial functional parameters, namely ASL depth, CBF and MCT in CFTR−/− and CFTR+/+ animals in response to sequential pharmacologic intervention by ivacaftor (10 μM), forskolin (100 nM) and acetylcholine (100 μM); in this experiment, acetylcholine served as a positive control to induce glandular extrusion in CF tissue). In these experiments, agonists were added to the bath solution and all experiments were conducted under physiological conditions (37° C. and 100% humidity). […] In contrast to FIG. 7G, ASL depth, CBF and MCT were all increased in response to ivacaftor treatment in CFTR+/+ animals, consistent with the results described above for human tissue.
Normal piglet tracheas were obtained from Exemplar Genetics (Sioux Center, Iowa). Tissue were dissected from one-day-old piglets and shipped on wet ice in DMEM. A modified protocol based on airway tissue handling and preparation methods developed by Ballard et al. (Am J Physiol Lung Cell Mol Physiol 298: L270-276, 2010) was employed. Tracheas were immersed in 80 mL Ringer bicarbonate solution (KRB) baths at room temperature and slowly warmed to 37° C. After four hours of pretreatment, the tracheas were removed from the KRB. Accessible mucus and liquid were aspirated from the airway lumens and the tracheal ends were cannulated so that the serosal surface was bathed in KRB [29] without contacting the mucosal surface, as previously described (Ballard et al., Am J Physiol Lung Cell Mol Physiol 298: L270-276, 2010; Martens, et al., Am J Physiol Lung Cell Mol Physiol 301: L236-246, 2011). Tracheas were allowed to equilibrate in KRB bubbled with 95% 02 and 5% CO2 at 37° C. and the luminal side exposed to conditioned air at 100% humidity for 2 hours prior to mOCT imaging (Sleigh et al., Comp Biochem Physiol A Comp Physiol 94: 359-364, 1989).
The μOCT system is a spectral-domain OCT implementation with several improvements to standard OCT that yield high resolution in both lateral and axial directions. The general layout and axial resolution characterization have been described (Liu et al., PLOSOne, 8(1), E54473-2013). A super-continuum source (Fianium SC450) provides the high-bandwidth, short coherence length light necessary for high axial resolution ([…]). A typical OCT system includes an interferometer with the reference and sample arms intersecting at a beamsplitter. The beamsplitter is replaced in μOCT with a 45 degree rod mirror, which apodizes the sample beam by introducing a circular obscuration in the center to achieve a balance of good lateral resolution (2 μm) and long depth of focus (0.2 mm). Custom software is employed to control the galvanometer scanning motors while acquiring spectral data from the line camera. […]

C=C[C@@]1(C)CC(=O)[C@]2(O)[C@@]3(C)[C@@H](O)CCC(C)(C)[C@@H]3[C@H](O)[C@H](OC(C)=O)[C@@]2(C)O1 [forskolin]
no response: ASL depth response | CBF response | MCT response

— patent US10300052B2, “Methods for increasing CFTR activity” (THE UAB RESEARCH FOUNDATION, priority 2012, dated 2019)
